In data set [1] the test system is CHO-gp120 cells. Description: Immunofluorescence microscopy, recruitment of labeled anti-DNP antibodies. Format: cell-based, Chinese hamster. The following applies: ARM-H plus competing ligand. The method, then:
Immunofluorescence (FIG. 3)
Confluent CHO-WT (env expressing) or CHO-K1 (non-env expressing) cells were incubated on cover slips (15CIR-1D, Fisher) over 2 nights at 37° C. in 5% CO2. Cover slips were washed with DPBS (1 mL, Gibco) and then cells fixed with 4% parafomaldehyde in DPBS at 4° C. for 10 minutes. […] Cover slips then washed with Buffer E (2×70 μl) and incubated with AlexaFluor488 rabbit anti-DNP IgG antibodies (Invitrogen) at 15 μg/ml in Buffer E (70 μl) for 1 hr at 4° C. All cover slips were washed prior to mounting onto slides using Gel Mount mounting medium (Biomeda Corp.) with Buffer E and water. Corresponding competition experiments were performed in the presence of recombinant human T-cell CD4 (ImmunoDiagnostics, Inc; Woburn, Mass.), BMS-378806 (1) and DNP-PEG-alkyne (2). Cells were checked using a Zeiss Axiovert 200M fluorescence microscope equipped with a GFP filter.

Another data set concerns wild-type HIV IIIB. Description: MT-2 cell assay, antiviral activity (MTT). The class given is cell-based, HIV-1. How it is done: (§1) Antiviral activity and cellular toxicity were determined using the MTT colorimetric method^7,8. MT-2 cell^9,10 at a concentration of 1×10^5 cells per milliliter were infected with wild-type HIV IIIB^11,12,13 at a multiplicity of infection (MOI) of 0.1. Infected and mock-infected cells were incubated in growth medium (RPMI 1640, 10% δFBS, kanamycin) for 5 days with varying concentrations of each compound being tested in triplicate in a 96-well plate. MIT (thiazolyl blue tetrazolium bromide), a cell-permeable tetrazolium dye was then added to each well. Active mitochondria reduce the yellow tetrazolium salt to a blue formazan precipitate. After 5 h, stop solution (86% isopropanol, 4% NP-40, 10% H2O, and 0.3% concentrated HCl) was added to lyse the cells and stop the reaction. The plates were gently shaken gently overnight on a horizontal rotator, and quantitated the following morning. Cell viability was measured spectrophotometrically by quantifying the amount of purple precipitate via determining the absorbance at 595 nm using a Multiskan Plus from Labsystems (Helsinki, Finland) microplate reader. The average of these triplicate samples was then plotted versus inhibitor concentration to generate dose-response curves. The 50% effective concentration (EC50) and 50% cytotoxic concentration (CC50) of the compounds were defined as the concentrations required to inhibit viral replication and to reduce the number of viable cells by 50%, respectively. Positive controls were done during each set of experiments using d4T and the appropriate parent NNRTI (HI-236 or TMC-derivative). Data were quantitated using KaleidaGraph (Synergy Software). ^7. Mosmann, T. J. Immunol Methods 1983, 65, 55-63.^8. Pannecouque, C.; Daelemans, D.; Clercq, E. D. Nat Protoc. 2008, 3, 427-434.^9. Haertle, T.; Carrera, C. J.; Wasson, D. B.; Sowers, L. C.; Richman, D. D.; Carson, D. A. J. Biol Chem. 1988, 263, 5870-5875.^10. Harada, S.; Koyanagi, Y.; Yamamoto, N. Science 1985, 229, 563-566.^11. Popovic, M.; Read-Connole, E.; Gallo, R. C. […] Popovic, M.; Samgadharan, M. G.; Read, E.; Gallo, R. C. […]

Another data set relates to CHO-K1 cells. Description: Flow cytometry detection of DNP labeling. The class given is cell-based, Chinese hamster. The following applies: higher concentrations of labeling reagent, data not shown. How it is done: Flow Cytometry Detection of DNP Labeling (FIG. 9)
CHO-K1 cells taken from a T-75 flask (˜80% confluent), were washed once with DPBS (Gibco, 5 mL), and cells were then detached with 2.5 mM EDTA/0.5 mM EGTA in DPBS. Resulting cell suspension was centrifuged at 900 rpm for five minutes, then pellet was aspirated and re-suspended at a density of 1.40×10^6 cells/mL in F12-K growth medium. Cells were incubated with 2,4-dinitrobenzenesulfonic acid (TCI, 50 mg/mL solution in MeOH) at varying concentrations for 30 min. at room temperature. Cells centrifuged and washed with growth medium (×3) and then aliquoted (0.5 ml) into Eppendorf tubes at a cell density of 1.40×10^6 cells/mL. Cells incubated with AlexaFluor 488 conjugated rabbit anti-DNP IgG (Invitrogen) antibodies (20 μg/mL) for 1 hr at 4° C. Cells were subsequently centrifuged, washed with DPBS (3×0.5 mL), resuspended in 0.5 mL DPBS containing 150 μg of propidium iodide (to monitor cell death) and immediately analyzed for fluorescence using a FACSCalibur flow cytometer (Becton Dickinson) monitoring at least 10,000 events/measurement. Data were analyzed using FlowJo Analysis Software (Tree Star).
For orientation: A flow cytometer gives signals particle by particle.

The target in the next data set is CD4-gp120 interaction (Human immunodeficiency virus type 1, UniProt Q75760). The experiment in a line: CD4 inhibition ELISA (competition ELISA, sCD4 binding to immobilized gp120). Also on record: species or system HIV-1. The method, then: CD4 Inhibition ELISA (FIG. 2A)
This procedure was adapted from the protocol reported by Lin, et al.^14. 96 well plates (Nunc; Immuno) were coated overnight at 4° C. with soluble recombinant HIV-1 gp120JRFL (Immune Technology; Yonkers, N.Y.) at 1 μg/ml in 0.05M Buffer A (carbonate/bicarbonate, pH=9.6, Aldrich). Plates were washed with PBS (Aldrich, 1×100 μL) and then blocked with 3% nonfat milk in phosphate buffered saline solution (PBS, Aldrich) for 1 hr at room temperature. After washing with Buffer B (50 mM Tris HCl, 100 mM NaCl, 0.05% Tween-20, pH 7.4), varying concentrations of the inhibitor were added simultaneously with recombinant human T-cell CD4 (ImmunoDiagnostics, Inc; Woburn, Mass.) in Buffer C (50 mM Tris HCl, 100 mM NaCl, 1% BSA, pH 7.4) so that the final concentration/well of CD4 is 0.1 μg/mL and plates were incubated for 1 hr at room temperature. Plates were washed with Buffer B (3×100 μL) and then incubated with mouse OKT4 anti-CD4 IgG antibody (Biolegend; San Diego, Calif.) at 0.36 μg/ml in Buffer C at RT for 1 hr. Following washes with Buffer B, plates were incubated with horse radish peroxidase (HRP)-conjugated goat anti-mouse antibody (1:2500; Biolegend; San Diego, Calif.). Bound antibody was detected with 3,3,5,5-tetramethylbenzidine (TMB, Pierce Protein Research Products), the chromogenic substrate for HPR, and absorbance was read at 450 nm. […]

For the next data set, the system named is MT-2 cells. Description: MT-2 cell assay, cellular toxicity in mock-infected cells (MTT). The following applies: control MT-2 cultures lacking HIV virus. Format: cell-based, human. How it is done:
as §1, with “The 50% effective concentration (EC50) and 50% cytotoxic concentration (CC50) of the compounds were defined as the concentrations required to inhibit viral replication and to reduce the number of viable cells by 50%, respectively. Positive controls were done during each set of experiments using d4T and the appropriate parent NNRTI (HI-236 or TMC-derivative).” left out, “Mosmann, T. J. Immunol Methods 1983, 65, 55-63.^8. Pannecouque, C.; Daelemans, D.; Clercq, E. D. Nat Protoc. 2008, 3, 427-434.^9. Haertle, T.; Carrera, C. J.; Wasson, D. B.; Sowers, L. C.; Richman, D. D.; Carson, D. A. J. Biol Chem. 1988, 263, 5870-5875.^10. Harada, S.; Koyanagi, Y.; Yamamoto, N. Science 1985, 229, 563-566.^11.” left out

Data set [2] concerns CHO-gp120 cells. Description: CDC assay (complement-dependent cytotoxicity) on Env-expressing cells. Format: cell-based, Chinese hamster. How it is done:
CDC Assay (FIG. 4 and FIG. 8)
CHO-WT or CHO-K1 cells taken from a T-75 flask (˜80% confluent), were washed once with DPBS (Gibco, 5 mL), and cells were then detached with 2.5 mM EDTA/0.5 mM EGTA in DPBS. Resulting cell suspension was centrifuged at 900 rpm for five minutes, then pellet was aspirated and re-suspended at a density of 9.00×10^5 cells/mL in Buffer E. Subsequently, cell suspension was added to prepared dilutions of ARM-H (4) (or control molecule) in Buffer E. Resulting cell mixtures were plated in triplicate (50 μL, 22,500 cells/well)□ onto 96 well plates (CoStar, black sides/clear bottom), covered with tin foil and incubated at 4° C. for 1.5 hours. To each well, 50 μL of 20% rabbit complement serum (v/v, Aldrich) and 100 μg/mL rat anti-DNP IgG (Zymed; Carlsbad, Calif.) in Buffer E was added, resulting in a 10% (v/v) complement and 50 μg/mL antibody concentration per well. Negative control wells containing only ARM-H dilutions were prepared in addition to maximum cell death controls (0.15% H2O2). Covered plate was incubated for an additional hour at 4° C. and then for 4 hours at room temperature. All control experiments were conducted following the same protocol. Cell viability was determined using the luciferase-based CellTiter-Glo Luminescent Cell Viability Assay (Promega). Complement mediated cell death and cytotoxicity was calculated as: [1−((sample-max killing)/(untreated-max killing))]×100 and plotted using GraphPad Prism. Raw data was subjected to Dixon Q-test analysis at the 90% confidence interval and statistical outliers removed accordingly^16,17. ^16. Dean, R. B.; Dixon, W. J. Anal. Chem. 1951, 23, 636-638.^17. Efstathiou, C. E. Talanta 2006, 69, 1068-1071.

“Also recorded” adds a separate entry of the source. Where two headings read alike, the source gives them in different places.

For `C#CCOCCOCCOCCOCCNc1ccc([N+](=O)[O-])cc1[N+](=O)[O-]` [Formula 2, N-(2,4-dinitrophenyl)-3,6,9,12-tetraoxapentadec-14-yn-1-amine], in the data set on CHO-gp120 cells [1], the “fluorescence of ARM-H-recruited anti-DNP antibodies in the presence of competing ligand” value is listed as “considerably diminished”.

Usually IC50 stands for the concentration that inhibits the measured activity by half. On to `Cc1cn([C@H]2C=C[C@@H](CO)O2)c(=O)[nH]c1=O` [d4T], for which the IC50 in the data set on wild-type HIV IIIB (live HIV-1, human MT-2 T-cell line, read-out: IC50, HIV-1 inhibition in MT-2 cell assay) was found to be 4.2 µM.

`O=[N+]([O-])c1ccc(S(=O)(=O)O)c([N+](=O)[O-])c1` [dinitrobenzenesulfonic acid, 2,4-dinitrobenzenesulfonic acid]: in the data set on CHO-K1 cells, the “cell death on labeling of CHO-K1 cells” value is listed as “Significant cell death”.

As for `COc1ccnc2[nH]cc(C(=O)C(=O)N3CCN(C(=O)c4ccccc4)C[C@H]3C)c12` [Formula 1, 4-benzoyl-1-(2-(4-methoxy-1H-pyrrolo(2,3-b)pyridin-3-yl)-1,2-dioxoethyl)-2-methyl-, (2R)-Piperazine, reference compound], the IC50 on CD4-gp120 interaction was determined as 1.3 µM; in the data set on wild-type HIV IIIB (Human immunodeficiency virus 1, IIIB, MT2, read-out: IC50, HIV-1 inhibition in MT-2 cell assay), 0.32 µM. In addition, the “fluorescence of ARM-H-recruited anti-DNP antibodies in the presence of competing ligand” value in the data set on CHO-gp120 cells [1] was “considerably diminished”.

For `C[C@@H]1CN(C(=O)c2ccccc2)CCN1C(=O)C(=O)c1c[nH]c2nccc(OCCOCCOCCOCCOCCOCCn3cc(COCCOCCOCCOCCNc4ccc([N+](=O)[O-])cc4[N+](=O)[O-])nn3)c12` [ARM-H], the IC50 on CD4-gp120 interaction is about 8.7 µM; with wild-type HIV IIIB (Human immunodeficiency virus 1, IIIB, MT2, live HIV-1, human MT-2 T-cell line, read-out: IC50, HIV-1 inhibition in MT-2 cell assay), 6.4 µM. Further, the “cytotoxicity in MT-2 cells” value with MT-2 cells is listed as “no observable cytotoxicity; also recorded: no non specific cytotoxicity”. Moreover, in the data set with CHO-gp120 cells [2] (CHO cell lines), the “non specific cytotoxicity in CHO cell lines” value is “no non specific cytotoxicity”. In the data set on CHO-gp120 cells [2] (CHO-gp120 cells, absence of anti-DNP antibody and complement-preserved serum), the “cell death without antibody and complement” value is listed as “no cell death was observed”. For the same molecule, the “concentrations at which inhibition of HIV entry and CDC activity were both operative” value in the data set with CHO-gp120 cells [2] (MT-2 entry inhibition and CDC together) fell in the range of 6 to 30 µM.

These data come from patent US10188727B2, “Bifunctional molecules with antibody-recruiting and entry inhibitory activity against the human immunodeficiency virus” (YALE UNIVERSITY, priority 2009, dated 2019).
